Columns and labels:
BTK enzyme = target: T1, BTK enzyme (Homo sapiens, UniProt Q06187); assay: In vitro BTK kinase assay: BTK-POLYGAT-LS assay; type: biochemical; settings: ATP 10 μM, read-out: IC50 (10uMATP)
T1 construct: purchased Upstate 14-552
Summary of the method: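 Human BTK activity was measured with final 10 μM ATP and 100 nM polyGAT substrate in pH 7.5 Tris buffer with 10 mM MgCl2, DTT, Triton X-100 and casein.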

[1] = target: BTK (phospho-BTK) in human whole blood (Homo sapiens, UniProt Q06187); assay: In vitro PD assay in human whole blood (pBTK assay)
Chain of BTK (phospho-BTK) in human whole blood (Q06187 whole entry): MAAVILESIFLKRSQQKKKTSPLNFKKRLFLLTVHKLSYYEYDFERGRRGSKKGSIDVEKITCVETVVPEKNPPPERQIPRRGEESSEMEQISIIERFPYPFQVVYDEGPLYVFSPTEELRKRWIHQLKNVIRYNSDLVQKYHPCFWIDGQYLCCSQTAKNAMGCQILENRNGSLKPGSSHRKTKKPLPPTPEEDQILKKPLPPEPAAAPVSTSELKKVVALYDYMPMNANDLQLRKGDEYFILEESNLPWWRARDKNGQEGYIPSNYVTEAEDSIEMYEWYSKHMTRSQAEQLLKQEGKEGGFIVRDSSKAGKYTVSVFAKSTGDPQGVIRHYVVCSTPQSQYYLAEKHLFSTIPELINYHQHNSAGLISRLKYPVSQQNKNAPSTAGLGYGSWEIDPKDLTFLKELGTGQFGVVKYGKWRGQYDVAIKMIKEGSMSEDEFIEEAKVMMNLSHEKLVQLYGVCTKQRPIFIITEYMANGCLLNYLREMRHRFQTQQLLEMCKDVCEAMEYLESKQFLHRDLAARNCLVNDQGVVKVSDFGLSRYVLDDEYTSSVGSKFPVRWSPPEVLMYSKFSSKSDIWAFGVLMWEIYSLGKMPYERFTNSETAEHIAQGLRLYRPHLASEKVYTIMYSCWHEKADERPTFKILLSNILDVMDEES

T1 sequence (Q06187 whole entry): as above

| Structure (SMILES) | IC50 (BTK enzyme) | IC50 [1] |
| --- | --- | --- |
| Cc1cc(-c2cc(Nc3cc4n(n3)CCNC4)ncn2)ccc1CNC(=O)c1cnc(C(C)(C)C)s1 [Example I-270, 2-tert-butyl-N-[[2-methyl-4-[6-(4,5,6,7-tetrahydropyrazolo[1,5-a]pyrazin-2-ylamino)pyrimidin-4-yl]phenyl]methyl]thiazole-5-carboxamide] | < 0.01 µM | < 0.5 µM |
| Cc1cc(-c2cc(Nc3cc4n(n3)CCN(CCO)C4)ncn2)ccc1CNC(=O)c1cnc(C(C)(C)C)s1 [Example I-271, 2-tert-butyl-N-[[4-[6-[[5-(2-hydroxyethyl)-6,7-dihydro-4H-pyrazolo[1,5-a]pyrazin-2-yl]amino]pyrimidin-4-yl]-2-methyl-phenyl]methyl]thiazole-5-carboxamide] | < 0.01 µM | < 0.5 µM |
| Cc1cc(-c2cc(Nc3cc4n(n3)CCNC4)ncn2)ccc1CNC(=O)N1CC(OC(C)C)C1 [Example I-272, 3-isopropoxy-N-[[2-methyl-4-[6-(4,5,6,7-tetrahydropyrazolo[1,5-a]pyrazin-2-ylamino)pyrimidin-4-yl]phenyl]methyl]azetidine-1-carboxamide] | < 0.01 µM | < 0.5 µM |
| Cc1cc(-c2cc(Nc3cc4n(n3)CCCNC4)ncn2)ccc1CNC(=O)N1CC(OC(C)C)C1 [Example I-273, 3-isopropoxy-N-[[2-methyl-4-[6-(5,6,7,8-tetrahydro-4H-pyrazolo[1,5-a][1,4]diazepin-2-ylamino)pyrimidin-4-yl]phenyl]methyl]azetidine-1-carboxamide] | < 0.01 µM | < 0.5 µM |
| Cc1cc(-c2cc(Nc3cc4n(n3)CCCN(CCO)C4)ncn2)ccc1CNC(=O)N1CC(OC(C)C)C1 [Example I-274, N-[[4-[6-[[5-(2-hydroxyethyl)-4,6,7,8-tetrahydropyrazolo[1,5-a][1,4]diazepin-2-yl]amino]pyrimidin-4-yl]-2-methyl-phenyl]methyl]-3-isopropoxy-azetidine-1-carboxamide] | < 0.01 µM | < 0.5 µM |
| Cc1cc(-c2cc(Nc3cc4n(n3)CCN(C)C4)ncn2)ccc1CNC(=O)N1CCC(C(C)(C)C)C1 (centres unmarked) [Example I-275, 3-tert-butyl-N-[[2-methyl-4-[6-[(5-methyl-6,7-dihydro-4H-pyrazolo[1,5-a]pyrazin-2-yl)amino]pyrimidin-4-yl]phenyl]methyl]pyrrolidine-1-carboxamide] | < 0.01 µM | < 0.5 µM |
| Cc1cc(-c2cc(Nc3cc4n(n3)CCOC4)ncn2)ccc1CNC(=O)c1cnc(C(C)(C)C)s1 [Example I-276, 2-tert-butyl-N-[[4-[6-(6,7-dihydro-4H-pyrazolo[5,1-c][1,4]oxazin-2-ylamino)pyrimidin-4-yl]-2-methyl-phenyl]methyl]thiazole-5-carboxamide] | < 0.01 µM | < 0.5 µM |
| Cc1cc(-c2cc(Nc3cc4n(n3)CCOC4)ncn2)ccc1CNC(=O)N1CC(OC(C)C)C1 [Example I-277, N-[[4-[6-(6,7-dihydro-4H-pyrazolo[5,1-c][1,4]oxazin-2-ylamino)pyrimidin-4-yl]-2-methyl-phenyl]methyl]-3-isopropoxy-azetidine-1-carboxamide] | < 0.01 µM | < 0.5 µM |
| Cc1cc(-c2cc(Nc3cc4n(n3)CCN(C)C4=O)ncn2)ccc1CNC(=O)c1cnc(C(C)(C)C)s1 [Example I-278, 2-tert-butyl-N-[[2-methyl-4-[6-[(5-methyl-4-oxo-6,7-dihydropyrazolo[1,5-a]pyrazin-2-yl)amino]pyrimidin-4-yl]phenyl]methyl]thiazole-5-carboxamide] | < 0.01 µM | < 0.5 µM |
| Cc1cc(-c2cc(Nc3cc4n(n3)CC(C)N(C)C4)ncn2)ccc1CNC(=O)c1cnc(C(C)(C)C)s1 (centres unmarked) [Example I-279, 2-tert-butyl-N-[[4-[6-[(5,6-dimethyl-6,7-dihydro-4H-pyrazolo[1,5-a]pyrazin-2-yl)amino]pyrimidin-4-yl]-2-methyl-phenyl]methyl]thiazole-5-carboxamide] | < 0.01 µM | < 0.5 µM |
| Cc1cc(-c2cc(Nc3cc4n(n3)CC(C)N(C)C4)ncn2)ccc1CNC(=O)c1cnn(C(C)(C)C)c1 (centres unmarked) [Example I-280, 1-tert-butyl-N-[[4-[6-[(5,6-dimethyl-6,7-dihydro-4H-pyrazolo[1,5-a]pyrazin-2-yl)amino]pyrimidin-4-yl]-2-methyl-phenyl]methyl]pyrazole-4-carboxamide] | < 0.01 µM | < 0.5 µM |
| Cc1cc(-c2cc(Nc3cc4n(n3)CC(=O)N(C)C4)ncn2)ccc1CNC(=O)N1CCC(C(C)(C)C)C1 (centres unmarked) [Example I-281, 3-tert-butyl-N-[[2-methyl-4-[6-[(5-methyl-6-oxo-4,7-dihydropyrazolo[1,5-a]pyrazin-2-yl)amino]pyrimidin-4-yl]phenyl]methyl]pyrrolidine-1-carboxamide] | < 0.01 µM | < 0.5 µM |
| Cc1cc(-c2cc(Nc3cc4n(n3)CCN(C)C4C)ncn2)ccc1CNC(=O)c1cnn(C(C)(C)C)c1 (centres unmarked) [Example I-282, 1-tert-butyl-N-[[4-[6-[(4,5-dimethyl-6,7-dihydro-4H-pyrazolo[1,5-a]pyrazin-2-yl)amino]pyrimidin-4-yl]-2-methyl-phenyl]methyl]pyrazole-4-carboxamide] | < 0.01 µM | < 0.5 µM |
| Cc1cc(-c2cc(Nc3cc4n(n3)CCN(C)C4C)ncn2)ccc1CNC(=O)c1cnc(C(C)(C)C)s1 (centres unmarked) [Example I-283, 2-tert-butyl-N-[[4-[6-[(4,5-dimethyl-6,7-dihydro-4H-pyrazolo[1,5-a]pyrazin-2-yl)amino]pyrimidin-4-yl]-2-methyl-phenyl]methyl]thiazole-5-carboxamide] | < 0.01 µM | < 0.5 µM |
| Cc1cc(-c2cc(Nc3cc4n(n3)CCN(C)C4C)ncn2)ccc1CNC(=O)N1CCC(C(C)(C)C)C1 (centres unmarked) [Example I-284, 3-tert-butyl-N-[[4-[6-[(4,5-dimethyl-6,7-dihydro-4H-pyrazolo[1,5-a]pyrazin-2-yl)amino]pyrimidin-4-yl]-2-methyl-phenyl]methyl]pyrrolidine-1-carboxamide] | < 0.01 µM | < 0.5 µM |
| Cc1cc(-c2cc(Nc3cc4n(n3)CCCN(CCO)C4)ncn2)ccc1CNC(=O)c1cnc(C(C)(C)C)s1 [Example I-285, 2-tert-butyl-N-[[4-[6-[[5-(2-hydroxyethyl)-4,6,7,8-tetrahydropyrazolo[1,5-a][1,4]diazepin-2-yl]amino]pyrimidin-4-yl]-2-methyl-phenyl]methyl]thiazole-5-carboxamide] | < 0.01 µM | < 0.5 µM |
| Cc1cc(-c2cc(Nc3cc4n(n3)CC(=O)N(C)C4)ncn2)ccc1CNC(=O)c1cnc(C(C)(C)C)s1 [Example I-286, 2-tert-butyl-N-[[2-methyl-4-[6-[(5-methyl-6-oxo-4,7-dihydropyrazolo[1,5-a]pyrazin-2-yl)amino]pyrimidin-4-yl]phenyl]methyl]thiazole-5-carboxamide] | < 0.01 µM | < 0.5 µM |
| Cc1cc(-c2cc(Nc3cc4n(n3)CCOC4)ncn2)ccc1CNC(=O)N1CC(OC(C)(C)C)C1 [Example I-287, 3-tert-butoxy-N-[[4-[6-(6,7-dihydro-4H-pyrazolo[5,1-c][1,4]oxazin-2-ylamino)pyrimidin-4-yl]-2-methyl-phenyl]methyl]azetidine-1-carboxamide] | < 0.01 µM | < 0.5 µM |
| Cc1cc(-c2cc(Nc3cc4n(n3)CCOC4)ncn2)ccc1CNC(=O)N1CCC(C(C)(C)C)C1 (centres unmarked) [Example I-288, 3-tert-butyl-N-[[4-[6-(6,7-dihydro-4H-pyrazolo[5,1-c][1,4]oxazin-2-ylamino)pyrimidin-4-yl]-2-methyl-phenyl]methyl]pyrrolidine-1-carboxamide] | < 0.01 µM | < 0.5 µM |
| Cc1cc(-c2ccnc(Nc3cnn(C4CCN(C)CC4)c3)n2)ccc1CN1Cc2nc(C(C)(C)C)sc2C1=O [Example I-289, 2-tert-butyl-5-[[2-methyl-4-[2-[[1-(1-methyl-4-piperidyl)pyrazol-4-yl]amino]pyrimidin-4-yl]phenyl]methyl]-4H-pyrrolo[3,4-d]thiazol-6-one] | < 0.01 µM | < 0.5 µM |
| Cn1cc(Nc2nccc(-c3ccc(CNC(=O)c4cnn(C(C)(C)C)c4)c(Cl)c3)n2)cn1 [Example I-291, 1-tert-butyl-N-[[2-chloro-4-[2-[(1-methylpyrazol-4-yl)amino]pyrimidin-4-yl]phenyl]methyl]pyrazole-4-carboxamide] | < 0.01 µM | < 0.5 µM |
| Cc1cc(-c2ccnc(Nc3cnn(C4CCC(C(=O)O)CC4)c3)n2)ccc1CNC(=O)c1cnn(C(C)(C)C)c1 (centres unmarked) [Example I-292, 4-[4-[[4-[4-[[(1-tert-butylpyrazole-4-carbonyl)amino]methyl]-3-methyl-phenyl]pyrimidin-2-yl]amino]pyrazol-1-yl]cyclohexanecarboxylic acid] | < 0.01 µM | < 0.5 µM |
| CC(C)n1cc(Nc2nccc(-c3ccc(CNC(=O)N4CCC(C(C)(C)C)C4)c(C(F)(F)F)c3)n2)cn1 (centres unmarked) [Example I-293, 3-tert-butyl-N-[[4-[2-[(1-isopropylpyrazol-4-yl)amino]pyrimidin-4-yl]-2-(trifluoromethyl)phenyl]methyl]pyrrolidine-1-carboxamide] | < 0.01 µM | < 0.5 µM |
| CC(C)(C)OC1CN(C(=O)NCc2ccc(-c3ccnc(Nc4cnn(C5CC5)c4)n3)cc2C(F)(F)F)C1 [Example I-294, 3-tert-butoxy-N-[[4-[2-[(1-cyclopropylpyrazol-4-yl)amino]pyrimidin-4-yl]-2-(trifluoromethyl)phenyl]methyl]azetidine-1-carboxamide] | < 0.01 µM | < 0.5 µM |
| COCCn1cc(Nc2nccc(-c3ccc(CNC(=O)N4CCC(C(C)(C)C)C4)c(C(F)(F)F)c3)n2)cn1 (centres unmarked) [Example I-295, 3-tert-butyl-N-[[4-[2-[[1-(2-methoxyethyl)pyrazol-4-yl]amino]pyrimidin-4-yl]-2-(trifluoromethyl)phenyl]methyl]pyrrolidine-1-carboxamide] | < 0.01 µM | < 0.5 µM |
